The values that follow come from patent US11053196B2, “Substituted indoline derivatives as dengue viral replication inhibitors” (JANSSEN PHARMACEUTICALS, INC., priority 2017, dated 2021).

Data set [1] has as its system DENV-2 strain 16681. In words: Tetravalent RT-qPCR assay, serotype 2. In kind it is cell-based. Particulars: Dengue virus, DENV2, 72 h; RT-qPCR serotype 2 16681, Vero cells, day 3. The procedure: (§1) The antiviral activity of the compounds of the invention was tested against DENV-1 strain TC974#666 (NCPV), DENV-2 strain 16681, DENV-3 strain H87 (NCPV) and DENV-4 strain H241 (NCPV) in a RT-qPCR assay. Therefore, Vero cells were infected with either DENV-1, or -2, or -3, or -4 in the presence or absence of test compounds. At day 3 post-infection, the cells were lysed and cell lysates were used to prepare cDNA of both a viral target (the 3′UTR of DENV; Table 2) and a cellular reference gene (1-actin, Table 2). Subsequently, a duplex real time PCR was performed on a Lightcycler480 instrument. The generated Cp value is inversely proportional to the amount of RNA expression of these targets. Inhibition of DENV replication by a test compound results in a shift of Cp's for the 3′UTR gene. On the other hand, if a test compound is toxic to the cells, a similar effect on 1-actin expression will be observed. The comparative ΔΔCp method is used to calculate EC50, which is based on the relative gene expression of the target gene (3′UTR) normalized with the cellular housekeeping gene (1-actin). In addition, CC50 values are determined based on the C, values acquired for the housekeeping gene β-actin.
(§2) The culture medium consisted of minimal essential medium supplemented with 2% of heat-inactivated fetal calf serum, 0.04% gentamycin (50 mg/mL) and 2 mM of L-glutamine. Vero cells, obtained from ECACC, were suspended in culture medium and 75 μL/well was added in 96-well plates (10000 cells/well), which already contain the antiviral compounds. […] In addition, each plate contains wells which are assigned as virus controls (containing cells and virus in the absence of compound) and cell controls (containing cells in the absence of virus and compound). Once the cells were added in the plates, the plates were incubated in a fully humidified incubator (37° C., 5% CO2) until the next day. Dengue viruses serotype-1, 2, 3 and 4 were diluted in order to obtain a Cp of ˜22-24 in the assay. Therefore, 25 μL of virus suspension was added to all the wells containing test compound and to the wells assigned as virus control. In parallel, 25 μL of culture medium was added to the cell controls. Next, the plates were incubated for 3 days in a fully humidified incubator (37° C., 5% CO2). After 3 days, the supernatant was removed from the wells and the cells were washed twice with ice-cold PBS (−100 μL). The cell pellets within the 96-well plates were stored at −80° C. for at least 1 day. Next, RNA was extracted using the Cells-to-CT™ lysis kit, according to the manufacturer's guideline (Life Technologies). The cell lysates can be stored at −80° C. or immediately used in the reverse transcription step.
(§3) In preparation of the reverse transcription step, mix A (table 3A) was prepared and 7.57 μL/well was dispensed in a 96-well plate. After addition of 5 μL of the cell lysates, a five minute denaturation step at 75° C. was performed (table 3B). Afterwards, 7.43 μL of mix B was added (table 3C) and the reverse transcription step was initiated (table 3D) to generate cDNA.
(§4) Finally, a RT-qPCR mix was prepared, mix C (table 4A), and 22.02 μL/well was dispensed in 96-well LightCycler qPCR plates to which 3 μL of cDNA was added and the qPCR was performed according to the conditions in table 4B on a LightCycler 480.
(§5) Using the LightCycler software and an in-house LIMS system, dose response curves for each compound were calculated and the half maximal effective concentration (EC50) and the half maximal cytotoxic concentration (CC50) were determined (Tables 5-8).

The test system of data set [2] is DENV-3 strain H87. Put plainly: Tetravalent RT-qPCR assay, serotype 3. In kind it is cell-based. The conditions noted are these: Dengue virus, DENV3, 72 h; RT-qPCR serotype 3 H87, Vero cells, day 3. How it is done: as §1, §2, §3, §4, §5
Data set [3] concerns DENV-2 16681 strain. In words: DENV-2 antiviral assay (eGFP-labeled virus in Vero cells). In kind it is cell-based, Dengue virus. Particulars: DENV-2 16681 eGFP, MOI 0.5, 3 days. How it is done:
The antiviral activity of all the compounds of the invention was tested against the DENV-2 16681 strain which was labeled with enhanced green fluorescent protein (eGPF). The culture medium consists of minimal essential medium supplemented with 2% of heat-inactivated fetal calf serum, 0.04% gentamycin (50 mg/mL) and 2 mM of L-glutamine. Vero cells, obtained from ECACC, were suspended in culture medium and 25 μL was added to 384-well plates (2500 cells/well), which already contain the antiviral compounds. Typically, these plates contain a 5-fold serial dilution of 9 dilution steps of the test compound at 200 times the final concentration in 100% DMSO (200 nL). […] Finally, each plate contains wells which are assigned as virus controls (containing cells and virus in the absence of compound), cell controls (containing cells in the absence of virus and compound) and medium controls (containing medium in the absence of cells, virus and compounds). To the wells assigned as medium control, 25 μL of culture medium was added instead of Vero cells. Once the cells are added to the plates, the plates were incubated for 30 minutes at room temperature to allow the cells to distribute evenly within the wells. Next, the plates were incubated in a fully humidified incubator (37° C., 5% CO2) until the next day. Then, DENV-2 strain 16681, labeled with eGFP, was added at a multiplicity of infection (MOI) of 0.5.
Therefore, 15 μL of virus suspension was added to all the wells containing test compound and to the wells assigned as virus control. In parallel, 15 μL of culture medium was added to the medium and cell controls. Next, the plates were incubated for 3 days in a fully humidified incubator (37° C., 5% CO2). At the day of the read out, the eGFP fluorescence was measured using an automated fluorescence microscope at 488 nm (blue laser). Using an in-house LIMS system, inhibition dose response curves for each compound were calculated and the half maximal effective concentration (EC50) was determined. Therefore, the percent inhibition (I) for every test concentration is calculated using the following formula: I=100*(ST−SCC)/(SVC−SCC); ST, SCC and SVC are the amount of eGFP signal in the test compound, cell control and virus control wells, respectively. The EC50 represents the concentration of a compound at which the virus replication is inhibited with 50%, as measured by a 50% reduction of the eGFP fluorescent intensity compared to the virus control. The EC50 is calculated using linear interpolation (Table 1).

The test system of data set [4] is DENV-4 strain H241. Put plainly: Tetravalent RT-qPCR assay, serotype 4. In kind it is cell-based. The conditions noted are these: Dengue virus, DENV4, 72 h; RT-qPCR serotype 4 H241, Vero cells, day 3. How it is done:
as §1, §2, §3, §4, §5

Data set [5] can be described thus: in vitro. In kind it is cell-based. Particulars: African green monkey. How it is done: as §1, with “The comparative ΔΔCp method is used to calculate EC50, which is based on the relative gene expression of the target gene (3′UTR) normalized with the cellular housekeeping gene (1-actin).” left out, “β-actin. […]” for “β-actin.”
as §5

The test system of data set [6] is DENV-1 strain TC974#666. Put plainly: Tetravalent RT-qPCR assay, serotype 1. In kind it is cell-based. The conditions noted are these: Dengue virus, DENV1, 72 h; RT-qPCR serotype 1 TC974#666, Vero cells, day 3. How it is done:
as §1, §2, §3, §4, §5

Data set [7] can be described thus: in vitro. Particulars: African green monkey.
Data set [8] concerns Vero cells. Particulars: African green monkey.

In the case of `COc1cc(NC(C(=O)N2CCc3cc(F)c(C(F)(F)F)cc32)c2ccc(Cl)cc2)cc(OCCCC(=O)O)c1` (single isomer, unassigned) [Compound 3B, 4-(3-((1-(4-chlorophenyl)-2-(5-fluoro-6-(trifluoromethyl)indolin-1-yl)-2-oxoethyl)amino)-5-methoxyphenoxy)butanoic acid], the EC50 was 0.096 nM in data set [1]; 1.5 nM in data set [2]; 0.12 nM in data set [3]; 14 nM in data set [4]; 0.1 nM in data set [6]. In addition, the CC50 at 3 days in data set [5] was more than 2500 nM. Besides, in data set [7], the CC50 came out at 13000 nM.

On to `COc1cc(NC(C(=O)N2CCc3ccc(OC(F)(F)F)cc32)c2ccc(F)cc2OC)cc(OCCCC(=O)O)c1` (single isomer, unassigned) [Compound 6B, 4-(3-((1-(4-fluoro-2-methoxyphenyl)-2-oxo-2-(6-(trifluoromethoxy)indolin-1-yl)ethyl)amino)-5-methoxyphenoxy)butanoic acid], for which the EC50 in data set [1] was determined as 0.41 nM; in data set [2], 5.6 nM; in data set [3], 0.39 nM; in data set [4], 29 nM; in data set [6] it was 0.64 nM. Moreover, the CC50 at 3 days in data set [5] amounted to 13000 nM. In data set [8], this compound displayed a CC50 of 15000 nM.
